The values that follow come from publication PMC6760193, “Characterization of artificially re-pigmented ARPE-19 retinal pigment epithelial cell model” (Scientific Reports, 2019).

In one data set the test system is ARPE-19mel cells. The data set is described as follows: Melanosomal drug uptake assay in re-pigmented ARPE-19mel cells (medium concentration vs non-pigmented ARPE-19, LC-MS/MS). It counts as in vitro ADME, human. Particulars: 4 µM drug, 20 hours; for Melanosomal drug uptake (%), average: serum-free medium; for Melanosomal drug uptake (fraction of administered compound in the melanosomes): ARPE-19mel cells, pigmentation stage not specified.

On the set-up of data set [1]: method as in PMID 29859954, PMID 28479360. Particulars: descriptors originally obtained with ACDLabs Software, cited from earlier work; for logD7.4 (predicted): pH 7.4.
The mark [2] stands for this setting: 10 % stage of pigmentation (7 µg melanin/well).
[3] abbreviates: 30 % stage of pigmentation (20 µg melanin/well).
The mark [4] stands for this setting: 100 % stage of pigmentation (68 µg melanin/well).

A value given as a limit tells only on which side of the number the result lay.

Procedure for ARPE-19mel cells: Uptake of six different drugs (Table 1) was studied in non-pigmented ARPE-19 cells and pigmented ARPE-19mel cells. The melanosome administration was conducted as described above using three melanosome doses (corresponding to 7 µg, 20 µg and 68 µg of melanin). These melanosome doses correspond to 10, 30 and 100% levels of pigmentation. The highest external melanosome dose (68 µg) results in similar cellular pigmentation with the native pRPE (i.e. normalized as 100%).
Drug uptake study was initiated 4–5 days after melanosome feeding. The experiments were conducted in 2–6 replicate wells, separately for each compound. The cells were exposed to 4 µM of each drug for 20 hours in serum-free culture medium. Then, samples from the medium samples were collected and diluted 2:5 into acetonitrile (ACN) with 0.2% formic acid. The samples were centrifuged at 15 000 g for 5 min, and the supernatant was collected and diluted 1:10 into mixture of ACN-water (60:40). Finally, internal standards were added at final concentration of 100 nM. Different internal standards were used for each compound (Table 1). The melanin amounts in the wells were measured after the uptake experiment (see above).
Drugs were quantitated with liquid chromatography mass spectrometry (LC-MS) analyses that were carried out with Acquity i-class UPLC (Waters, Massachusetts, USA) coupled with Xevo TQ-S triple quadrupole mass spectrometry (Waters). […] Chromatographic separation for all six compounds was carried out using Waters HSS-T3 column (2.1 × 100 mm, 1.8 µm) and gradient run. The mobile phases were prepared as binary phases. Phase A was purified water with 0.1% of formic acid and phase B contained 100% lc-ms grade acetonitrile (Chromasolv^TM). […] Total run time was 9 minutes including column flush and stabilization to the initial state. […] Flow through needle system was used.
Electrospray ionization on positive mode was used in the analyses. […] Nitrogen was used as a desolvation gas (Aga, Helsinki, Finland) and argon as a collision gas (Aga). Capillary and cone voltages, collision energy and dwell time were tuned individually for each compound (Table 2). […] Minimum of eight calibration curve levels were used for quantification while quality control (QC) samples used to monitor precision and bias of the assay. Data were processed with MassLynx V4.1 software (Waters).
The melanosomal drug uptake was calculated using the Eq. 1 below:1 Melanosomaldruguptake(%)=(1−CmediumARPE−19mel/CmediumARPE−19)×100%

On to `CCN(CC)CCCC(C)Nc1ccnc2cc(Cl)ccc12` (centres unmarked) [chloroquine], for which the figures for the “Melanosomal drug uptake (%), average” value in the data set on ARPE-19mel cells (setting [2]), in the data set on ARPE-19mel cells (setting [3]) and in the data set with ARPE-19mel cells (setting [4]) were 80.3%, 93.3% and 96.7%, respectively. Also, in the data set with ARPE-19mel cells, the “Melanosomal drug uptake (fraction of administered compound in the melanosomes)” value is given as above 90%.

`O=C(O)Cc1ccccc1Nc1c(Cl)cccc1Cl` [diclofenac]: the “Melanosomal drug uptake (%), average” value in the data set on ARPE-19mel cells (setting [2]) came out at 0.8%; with ARPE-19mel cells (setting [3]), 1.2%; in the data set on ARPE-19mel cells (setting [4]), 3.7%. The “Melanosomal drug uptake (fraction of administered compound in the melanosomes)” value in the data set on ARPE-19mel cells is given as below 5%. In data set [1], the “logD7.4 (predicted)” value was 1.4.

Turning to `CN(Cc1cnc2nc(N)nc(N)c2n1)c1ccc(C(=O)N[C@@H](CCC(=O)O)C(=O)O)cc1` [methotrexate], the “Melanosomal drug uptake (%), average” value with ARPE-19mel cells (setting [2]) is 5.1%; in the data set on ARPE-19mel cells (setting [3]), 3.9%; in the data set with ARPE-19mel cells (setting [4]) it was 3.5%. Moreover, the “Melanosomal drug uptake (fraction of administered compound in the melanosomes)” value with ARPE-19mel cells is given as below 5%. Further, the “pKa, most acidic” value in data set [1] was 3.5. In addition, in data set [1], the “logD7.4 (predicted)” value is −5.1.

With `CC[C@@H]1C(=O)OC[C@@H]1Cc1cncn1C` [pilocarpine], the “Melanosomal drug uptake (%), average” value is listed as 11.5% with ARPE-19mel cells (setting [2]), 23.5% in the data set with ARPE-19mel cells (setting [3]) and 30.2% in the data set with ARPE-19mel cells (setting [4]). The “pKa, most basic” value in data set [1] was 7.02. For the same molecule, the “logD7.4 (predicted)” value in data set [1] is listed as −0.4.

Turning to `CC(C)NCC(O)COc1cccc2ccccc12` (centres unmarked) [propranolol], the figures for the “Melanosomal drug uptake (%), average” value with ARPE-19mel cells (setting [2]), with ARPE-19mel cells (setting [3]) and in the data set on ARPE-19mel cells (setting [4]) were 34.1%, 76.1% and 92.2%, respectively. Also, the “Melanosomal drug uptake (fraction of administered compound in the melanosomes)” value in the data set with ARPE-19mel cells was above 90%.

`CC(C)(C)NC[C@H](O)COc1nsnc1N1CCOCC1` [timolol]: the “Melanosomal drug uptake (%), average” value in the data set with ARPE-19mel cells (setting [2]) is recorded as 17.6%; with ARPE-19mel cells (setting [3]), 31.2%; in the data set on ARPE-19mel cells (setting [4]), 48.2%. Further, the “pKa, most basic” value in data set [1] is given as 9.4. For the same molecule, the “logD7.4 (predicted)” value in data set [1] is −0.6.
